What all share (format): cell-based
One assay concerns human IL-10. In words: IL-10 production from DSEK cells (ELISA). The following applies: DSEK culture supernatant. On the procedure: (§1) 150 μl of a culture supernatant was collected from a well containing a culture of DSEK cells over time at intervals of 24 hours. The effects of agarobiose on the production (expression) of cytokines (human TGF-β, human FGF-β and human IL-10) from the cell were determined using ELISA kits specific for the respective cytokines (from Intergen for human FGF-β and human IL-10; and from Promega for human TGF-β).
(In general: In an ELISA, binding on a coated surface is turned into a signal by an enzyme label.)

The next assay has as its system heme oxygenase 1 protein. As to the kind of experiment: Heme oxygenase 1 induction in RAW264.7 cells (Western blot). Details: key: − represents no band observed; increase in the intensity of the band is represented as follows:+−<+<++; increase in the intensity of the band is represented as follows:+−<+<++; increase in the intensity of the band is represented as follows:+−<+<++. The conditions noted are these: 15 hours. On the procedure: RAW264.7 cells (ATCC TIB 71) were suspended in Dulbecco's modified Eagle's medium (Bio Whittaker, 12-604F) containing 10% fetal calf serum (Gibco) at a concentration of 3×10^5 cells/ml. 5 ml of the suspension was added to each well of a 6-well microtiter plate and the plate was incubated at 37° C. overnight in the presence of 5% CO2. 50 μl of a solution containing agarobiose or agarohexaose in Referential Example 1 at a concentration of 20 mM, 10 mM or 5 mM in water was added to the well. The plate was incubated for 15 hours. A positive control for heme oxygenase 1 induction in which 5 μl of 3 mM solution of 15-deoxy-Δ12,14 prostaglandin J2 (Cayman Chemical, 18570) in dimethyl sulfoxide was added, and a negative control in which water was added were provided. The cells were recovered by detaching the cells from the plate using a scraper and suspended in 0.1 M tris-HCl buffer (pH 7.5) containing 0.05 mM pepstatin A (Sigma, P5318), 0.2 mM leupeptin (Sigma, L2884), 1 mM phenylmethylsulfonyl fluoride (Nacalai Tesque, 273-27), 10 mm ethylenediaminetetraacetic acid disodium salt and 0.1% Triton X-100. A supernatant obtained by centrifuging the suspension after freezing and thawing was used as a protein fraction. The content of protein in the protein fraction was determined using Micro BCA Protein Assay Reagent (a product of Pierce sold by Takara Shuzo, P7411). A sample from the protein fraction prepared as described above was mixed with an equal volume of 0.125 M tris-hydrochloride buffer (pH 6.8) containing 4% sodium lauryl sulfate (SDS), 2% 2-mercaptoethanol, 0.001% Bromophenol Blue and 20% glycerol. After treatment at 100° C. for 5 minutes, a portion corresponding to 10 μg of protein was loaded on 12.5% SDS-polyacrylamide gel and electrophoresed at a constant current of 20 mA. After electrophoresis, the gel was transferred to a PVDF membrane (Millipore, IPVH000 10) at a constant voltage of 15 V for 25 minutes using a blotting buffer (containing 48 mM tris, 39 mM glycine, 20% methanol and 0.0375% SDS) and Trans-Blot SD Cell Semi-Dry blotting apparatus (Bio-Rad) according to the attached protocol. After transferring, the PVDF membrane was blocked in a solution of Block Ace (Dainippon Pharmaceutical, UK-B25) at 4° C. overnight. After blocking, the membrane washed three times in phosphate buffered saline containing 0.1% Tween 20 for 15 minutes with gentle shaking. The membrane was reacted in phosphate buffered saline containing 10% Block Ace, 0.1% Tween 20 and 200 ng/ml of anti-heme oxygenase 1 antibody (N-19; Santa Cruz, sc-7696) at room temperature for 1 hour with gentle shaking, and then washed three times in phosphate buffered saline containing 0.1% Tween 20 for 15 minutes with gentle shaking. The membrane was reacted in phosphate buffered saline containing 10% Block Ace, 0.1% Tween 20 and 0.1% peroxidase-labeled rabbit anti-goat IgG (H+L) antibody (Zymed, 61-1620) at room temperature for 1 hour with gentle shaking, and then washed five times in phosphate buffered saline containing 0.1% Tween 20 for 15 minutes with gentle shaking. The PVDF membrane was stained using Western Blot Chemiluminescence Reagent Plus (a product of NEN Life Science Products sold by Daiichi Pure Chemicals, NEL103) according to the attached protocol and exposed to an X-ray film (Kodak, CAT165 1454). After exposure, the film was developed using FPM800 (Fuji Film).
The intensity of the band depended on the concentration of agarobiose or agarohexaose. In the table, the intensity of the band for heme oxygenase 1 protein is expressed by the mark+. Specifically, − represents no band observed, and increase in the intensity of the band is represented as follows:+−<+<++.
On the technique in general: In western blotting, separated proteins are transferred to a membrane and probed.

A further assay has as its system human TGF-β. As to the kind of experiment: TGF-β production from DSEK cells (ELISA). The following applies: DSEK culture supernatant. On the procedure:
as §1

In a further assay the test system is RAW264.7 cells. As to the kind of experiment: Prostaglandin E2 generation by crude enzyme fraction of RAW264.7 cells pre-treated with sample and LPS. The following applies: cells treated with 200 μl of 10 mM sample per 20 ml, 5 hours before LPS. The protocol:
(1) RAW264.7 cells (ATCC TIB 71) were suspended in Dulbecco's modified Eagle's medium (Bio Whittaker, 12-604F) containing 10% fetal calf serum (Gibco) at a concentration of 1×10^6 cells/ml. 20 ml of the suspension was added to a 10-cm Petri dish and the dish was incubated at 37° C. overnight in the presence of 5% CO2. 200 μl of a solution containing agarohexaose or DGE (obtained in Example 15-(2) below) at a concentration of 10 mM in water was added to the dish. The dish was incubated for 5 hours. 200 μl of a solution containing lipopolysaccharide (LPS, Sigma, L-2012) at a concentration of 100 μg/ml in water was added thereto. The dish was incubated for additional 12 hours. As a control, 200 μL of water was added in place of the sample. The cells were recovered by detaching the cells from the plate using a scraper and suspended in 0.1 M tris buffer (pH 8.0) containing 1 μg/ml pepstatin A (Sigma, P5318), 1 μg/ml leupeptin (Sigma, L2884) and 1 mM phenylmethylsulfonyl fluoride (Nacalai Tesque, 273-27). The cell membrane was destroyed by sonication. A supernatant collected by centrifugation was used as a crude enzyme fraction. The content of protein in the crude enzyme fraction was determined using Micro BCA Protein Assay Reagent (a product of Pierce sold by Takara Shuzo, P7411). 2.5 μL of 200 mM aqueous solution of glutathione (Nacalai Tesque, 170-50), 2.5 μL of a suspension containing L-adrenaline (Nacalai Tesque, 010-04) at a concentration of 200 mM in water, and 1 μL of 3 mM solution of arachidonic acid (Cayman, 90010.1) or 1 μL of 100 μg/mL solution of prostaglandin H2 (Cayman, 17020) were added to 100 μL of the sample from the crude enzyme fraction prepared as described above. The mixture was reacted at 37° C. for 30 minutes. The reaction was stopped by heating at 100° C. for 2 minutes. The content of prostaglandin E2 in the reaction mixture was measured using Prostaglandin E2 ELISA Kit (Neogen, 404110).

Consider `OC[C@H]1O[C@@H](O[C@H]2[C@H]3OC[C@@H]2OC(O)[C@H]3O)[C@H](O)[C@@H](O)[C@H]1O` (mixture of isomers) [Agarobiose, agarobiose], for which, in the assay on human IL-10, the “production of human IL-10” value is given as “activities of inhibiting the production”. Also, the “Intensity of band for heme oxygenase 1 protein” value in the assay on heme oxygenase 1 protein (final concentration of 50 μM) is reported as “+−”; in the assay on heme oxygenase 1 protein (final concentration of 100 μM) it was “+”; in the assay with heme oxygenase 1 protein (final concentration of 200 μM), “++”. Further, the “production of human TGF-β” value in the assay with human TGF-β was “activities of inhibiting the production”.
Consider `OCC1OC(OC2C3COC2C(O)C(OC2C(O)C(CO)OC(OC4C5COC4C(O)C(OC4C(O)C(CO)OC(OC6C7COC6C(O)C(O)O7)C4O)O5)C2O)O3)C(O)C(O)C1O` (stereo not shown) [Agarohexaose, agarohexaose], for which, in the assay on RAW264.7 cells (FIG. 13), the “production of prostaglandin E2, arachidonic acid added” value is reported as “suppressed as compared with the control”. Further, the “production of prostaglandin E2, prostaglandin H2 added” value with RAW264.7 cells (FIG. 14) is given as “suppressed as compared with the control”. Further, the “Intensity of band for heme oxygenase 1 protein” value was “+−” in the assay on heme oxygenase 1 protein (final concentration of 50 μM), “+” in the assay on heme oxygenase 1 protein (final concentration of 100 μM) and “++” with heme oxygenase 1 protein (final concentration of 200 μM).
